Measurements published in PMC6783924, “Alkaloid Lindoldhamine Inhibits Acid-Sensing Ion Channel 1a and Reveals Anti-Inflammatory Properties” (Toxins, 2019).

Biological target: T1, acid-sensing ion channel isoform 1a (ASIC1a) (Rattus norvegicus, UniProt P55926)
T1 construct: gene Asic1
T1 sequence (P55926 1-526): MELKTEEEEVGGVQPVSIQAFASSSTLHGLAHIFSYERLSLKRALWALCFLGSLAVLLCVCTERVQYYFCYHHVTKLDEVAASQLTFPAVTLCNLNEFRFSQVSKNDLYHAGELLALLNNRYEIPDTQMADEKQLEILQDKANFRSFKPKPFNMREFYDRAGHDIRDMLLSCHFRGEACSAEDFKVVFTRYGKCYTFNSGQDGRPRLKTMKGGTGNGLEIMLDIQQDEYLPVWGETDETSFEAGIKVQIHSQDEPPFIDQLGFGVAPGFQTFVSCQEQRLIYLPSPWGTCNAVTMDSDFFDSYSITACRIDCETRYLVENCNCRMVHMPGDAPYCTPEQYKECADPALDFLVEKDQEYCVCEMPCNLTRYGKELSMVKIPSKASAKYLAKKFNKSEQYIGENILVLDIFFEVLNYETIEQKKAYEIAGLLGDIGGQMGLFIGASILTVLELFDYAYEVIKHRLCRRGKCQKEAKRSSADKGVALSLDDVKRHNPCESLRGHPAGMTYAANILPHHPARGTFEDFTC
Test: two-electrode voltage clamp, Xenopus laevis oocytes expressing rat ASIC1a, pH […] stimulus from pH […]
Assay type: cell-based
Settings: read-out: pH 6.85

IC50: 9 ± 0.3 µM
Compound: COc1cc2c(cc1O)C(Cc1ccc(O)c(Oc3ccc(C[C@@H]4NCCc5cc(OC)c(O)cc54)cc3)c1)NCC2 (stereo partly shown) [LIN, lindoldhamine]
